The source of these data is patent US20170326125A1, “MULTISUBSTITUTED AROMATIC COMPOUNDS AS INHIBITORS OF THROMBIN” (VERSEON CORPORATION, priority 2016, published 2017).

A value given as a limit tells only on which side of the number the result lay.

This assay addresses T1, Human thrombin (Homo sapiens, UniProt P00734).
T1 construct: purchased Haematologic Technologies Inc
Description: Inhibition of the protease activity of thrombin (chromogenic substrate S-2238). The following applies: Table C; 3 nM thrombin, 125 μM S-2238, 10 min pre-incubation, RT. In kind it is biochemical.
A word on the IC50: it is the concentration needed to halve the response being measured. A low value points to greater potency. For the compound `O=C(Cc1ccccc1)n1nc(-c2ccco2)nc1NCc1ccccc1` [Cmpd 346, 1-[5-(benzylamino)-3-(furan-2-yl)-1H-1,2,4-triazol-1-yl]-2-phenylethan-1-one], the IC50 was < 100 nM. Regarding `O=C(CCc1ccccc1)n1nc(-c2ccco2)nc1NCc1ccccc1` [Cmpd 347, 1-[5-(benzylamino)-3-(furan-2-yl)-1H-1,2,4-triazol-1-yl]-3-phenylpropan-1-one], the IC50 is < 100 nM. In the case of `CCC(=O)n1nc(-c2ccco2)nc1NCc1ccccc1` [Cmpd 348, 1-[5-(benzylamino)-3-(furan-2-yl)-1H-1,2,4-triazol-1-yl]propan-1-one] it was < 100 nM; in that of `CC(C)C(=O)n1nc(-c2cccnc2)nc1NCc1ccccc1` [Cmpd 349, 1-[5-(benzylamino)-3-(pyridin-3-yl)-1H-1,2,4-triazol-1-yl]-2-methylpropan-1-one], < 100 nM; in that of `CC(C)CC(=O)n1nc(-c2cccnc2)nc1NCc1ccccc1` [Cmpd 350, 1-[5-(benzylamino)-3-(pyridin-3-yl)-1H-1,2,4-triazol-1-yl]-3-methylbutan-1-one], < 100 nM. The value for `CCC(=O)n1nc(-c2cccnc2)nc1NCc1ccccc1` [Cmpd 351, 1-[5-(benzylamino)-3-(pyridin-3-yl)-1H-1,2,4-triazol-1-yl]propan-1-one] was < 100 nM. The value for `CCC(=O)n1nc(-c2cccs2)nc1NCc1ccccc1` [Cmpd 352, 1-[5-(benzylamino)-3-(thiophen-2-yl)-1H-1,2,4-triazol-1-yl]propan-1-one] was < 100 nM. For `O=C(Cc1ccccc1)n1nc(-c2ccccc2)nc1NCc1ccccc1` [Cmpd 353, 1-[5-(benzylamino)-3-phenyl-1H-1,2,4-triazol-1-yl]-2-phenylethan-1-one], the IC50 is < 100 nM. `O=C(CCc1ccccc1)n1nc(-c2ccccc2)nc1NCc1ccccc1` [Cmpd 354, 1-[5-(benzylamino)-3-phenyl-1H-1,2,4-triazol-1-yl]-3-phenylpropan-1-one]: the 50% inhibitory concentration (IC50) is > 1000 nM. In the case of `CCC(=O)n1nc(-c2ccccc2)nc1NCc1ccccc1` [Cmpd 355, 1-[5-(benzylamino)-3-phenyl-1H-1,2,4-triazol-1-yl]propan-1-one] it was 100 to 1000 nM. The value for `O=C(c1ccccc1)n1nc(-c2cccnc2)nc1NCc1ccc(F)cc1` [Cmpd 356, 1-benzoyl-N-[(4-fluorophenyl)methyl]-3-(pyridin-3-yl)-1H-1,2,4-triazol-5-amine] was < 100 nM; that for `COc1ccc(CNc2nc(-c3cccnc3)nn2C(=O)c2ccccc2)cc1` [Cmpd 357, 1-benzoyl-N-[(4-methoxyphenyl)methyl]-3-(pyridin-3-yl)-1H-1,2,4-triazol-5-amine] was 100 to 1000 nM. In the case of `O=C(c1ccccc1)n1nc(-c2ccco2)nc1NCc1ccccc1` [Cmpd 358, 1-benzoyl-N-benzyl-3-(furan-2-yl)-1H-1,2,4-triazol-5-amine], the concentration for half-maximal inhibition (IC50) was < 100 nM.

Take `O=C(c1ccccc1)n1nc(-c2ccccc2)nc1NCc1ccccc1` [Cmpd 359, 1-benzoyl-N-benzyl-3-phenyl-1H-1,2,4-triazol-5-amine]: the IC50 was < 100 nM.

With `CS(=O)(=O)n1nc(C(=O)N2CCOCC2)nc1N` [Cmpd 360, 1-methanesulfonyl-3-[(morpholin-4-yl)carbonyl]-1H-1,2,4-triazol-5-amine], the IC50 is > 1000 nM. The value for `CC(C)C(=O)n1nc(-c2cccnc2)nc1NCc1ccco1` [Cmpd 361, 1-5-[(furan-2-ylmethyl)amino]-3-(pyridin-3-yl)-1H-1,2,4-triazol-1-yl-2-methylpropan-1-one] was < 100 nM; that for `CCCC(=O)n1nc(-c2cccnc2)nc1NCc1ccco1` [Cmpd 362, 1-5-[(furan-2-ylmethyl)amino]-3-(pyridin-3-yl)-1H-1,2,4-triazol-1-ylbutan-1-one] was < 100 nM; that for `CC(=O)n1nc(-c2cccnc2)nc1NCc1ccco1` [Cmpd 363, 1-5-[(furan-2-ylmethyl)amino]-3-(pyridin-3-yl)-1H-1,2,4-triazol-1-ylethan-1-one] was < 100 nM.

As for `CCC(=O)n1nc(-c2cccnc2)nc1NCc1ccco1` [Cmpd 364, 1-5-[(furan-2-ylmethyl)amino]-3-(pyridin-3-yl)-1H-1,2,4-triazol-1-ylpropan-1-one], the half-inhibitory concentration (IC50) lay within 100 to 1000 nM. The value for `O=C(Nc1n[nH]c(-c2ccco2)n1)c1ccccc1F` [Cmpd 365, 2-fluoro-N-[5-(furan-2-yl)-1H-1,2,4-triazol-3-yl]benzamide] was > 1000 nM; that for `Cc1ccc(CNc2nc(-c3cccnc3)nn2C(=O)C(C)C)cc1` [Cmpd 366, 2-methyl-1-(5-[(4-methylphenyl)methyl]amino-3-(pyridin-3-yl)-1H-1,2,4-triazol-1-yl)propan-1-one] was < 100 nM; that for `COc1ccccc1C(=O)n1nc(-c2ccco2)nc1SC` [Cmpd 367, 3-(furan-2-yl)-1-[(2-methoxyphenyl)carbonyl]-5-(methylsulfanyl)-1H-1,2,4-triazole] was < 100 nM.

On to `O=C(c1cccnc1)n1nc(-c2ccco2)nc1NCc1cccs1` [Cmpd 368, 3-(furan-2-yl)-1-[(pyridin-3-yl)carbonyl]-N-(thiophen-2-ylmethyl)-1H-1,2,4-triazol-5-amine], for which the IC50 was < 100 nM. In the case of `CS(=O)(=O)n1nc(-c2ccco2)nc1NCc1cccs1` [Cmpd 369, 3-(furan-2-yl)-1-methanesulfonyl-N-(thiophen-2-ylmethyl)-1H-1,2,4-triazol-5-amine] it was > 1000 nM; in that of `COc1ccccc1CNc1nc(-c2ccco2)nn1C(=O)c1ccc(C)cc1` [Cmpd 370, 3-(furan-2-yl)-N-[(2-methoxyphenyl)methyl]-1-[(4-methylphenyl)carbonyl]-1H-1,2,4-triazol-5-amine], 100 to 1000 nM. The value for `COc1ccc(CNc2nc(-c3ccco3)nn2C(=O)c2ccc(C)cc2)cc1` [Cmpd 371, 3-(furan-2-yl)-N-[(4-methoxyphenyl)methyl]-1-[(4-methylphenyl)carbonyl]-1H-1,2,4-triazol-5-amine] was 100 to 1000 nM; that for `O=C(c1cccnc1)n1nc(-c2cccnc2)nc1NCc1cccs1` [Cmpd 372, 3-(pyridin-3-yl)-1-[(pyridin-3-yl)carbonyl]-N-(thiophen-2-ylmethyl)-1H-1,2,4-triazol-5-amine] was 100 to 1000 nM.

Take `Nc1nc(-c2cccs2)n[nH]1` [Cmpd 373, 3-(thiophen-2-yl)-1H-1,2,4-triazol-5-amine]: the IC50 was > 1000 nM.

For `Cc1ccc(CNc2nc(-c3cccnc3)nn2C(=O)CC(C)C)cc1` [Cmpd 374, 3-methyl-1-(5-[(4-methylphenyl)methyl]amino-3-(pyridin-3-yl)-1H-1,2,4-triazol-1-yl)butan-1-one], the IC50 is < 100 nM.

With `CC(C)CC(=O)n1nc(-c2cccnc2)nc1NCc1cccs1` [Cmpd 375, 3-methyl-1-[3-(pyridin-3-yl)-5-[(thiophen-2-ylmethyl)amino]-1H-1,2,4-triazol-1-yl]butan-1-one], the concentration for half-maximal inhibition (IC50) is < 100 nM. Turning to `CCOC(=O)n1nc(-c2ccc(Cl)cc2)cc1N` [Cmpd 376, ethyl 5-amino-3-(4-chlorophenyl)-1H-pyrazole-1-carboxylate], the IC50 is > 1000 nM. In the case of `COC(=O)c1nc(NC(=O)c2ccc(Cl)cc2Cl)n[nH]1` [Cmpd 377, methyl 3-[(2,4-dichlorobenzene)amido]-1H-1,2,4-triazole-5-carboxylate] it was > 1000 nM; in that of `COC(=O)c1n[nH]c(NC(=O)C(C)(C)C)n1` [Cmpd 378, methyl 5-(2,2-dimethylpropanamido)-1H-1,2,4-triazole-3-carboxylate], > 1000 nM; in that of `COC(=O)c1n[nH]c(NC(=O)c2ccoc2C)n1` [Cmpd 379, methyl 5-(2-methylfuran-3-amido)-1H-1,2,4-triazole-3-carboxylate], > 1000 nM. The value for `COC(=O)c1n[nH]c(NC(=O)c2ccccc2C)n1` [Cmpd 380, methyl 5-[(2-methylbenzene)amido]-1H-1,2,4-triazole-3-carboxylate] was > 1000 nM. In the case of `COC(=O)c1n[nH]c(NC2=NCCCCC2)n1` [Cmpd 381, methyl 5-[(3,4,5,6-tetrahydro-2H-azepin-7-yl)amino]-1H-1,2,4-triazole-3-carboxylate], the half-maximal inhibitory concentration (IC50) was > 1000 nM. In the case of `COC(=O)c1n[nH]c(NC(=O)c2cccc(C)c2)n1` [Cmpd 382, methyl 5-[(3-methylbenzene)amido]-1H-1,2,4-triazole-3-carboxylate] it was > 1000 nM; in that of `COC(=O)c1nnc(NC(=O)c2ccc(Br)cc2)[nH]1` [Cmpd 383, methyl 5-[(4-bromobenzene)amido]-1H-1,2,4-triazole-3-carboxylate], > 1000 nM. Compound `COC(=O)c1nnc(NC(=O)c2ccc(F)cc2)[nH]1` [Cmpd 385, methyl 5-[(4-fluorobenzene)amido]-4H-1,2,4-triazole-3-carboxylate] yielded an IC50 of 100 to 1000 nM.

Regarding `COC(=O)c1n[nH]c(N=Cc2cccnc2)n1` [Cmpd 387, methyl 5-[(pyridin-3-ylmethylidene)amino]-1H-1,2,4-triazole-3-carboxylate], the half-maximal inhibitory concentration (IC50) was > 1000 nM. The value for `COC(=O)c1n[nH]c(NC(=O)CCc2ccc(C)cc2)n1` [Cmpd 388, methyl 5-[3-(4-methylphenyl)propanamido]-1H-1,2,4-triazole-3-carboxylate] was > 1000 nM; that for `O=C(Nc1ccc(Cl)cc1Cl)c1n[nH]c(Cn2cncn2)n1` [Cmpd 390, N-(2,4-dichlorophenyl)-5-(1H-1,2,4-triazol-1-ylmethyl)-4H-1,2,4-triazole-3-carboxamide] was > 1000 nM; that for `O=C(Nc1ccccc1Cl)c1nc(-n2cnnc2)n[nH]1` [Cmpd 391, N-(2-chlorophenyl)-3-(4H-1,2,4-triazol-4-yl)-1H-1,2,4-triazole-5-carboxamide] was > 1000 nM. In the case of `O=C(Nc1ccc(Br)cc1)c1nc(-n2cnnc2)n[nH]1` [Cmpd 392, N-(4-bromophenyl)-3-(4H-1,2,4-triazol-4-yl)-1H-1,2,4-triazole-5-carboxamide] it was > 1000 nM; in that of `CCOc1ccc(NC(=O)c2nc(-n3cnnc3)n[nH]2)cc1` [Cmpd 393, N-(4-ethoxyphenyl)-3-(4H-1,2,4-triazol-4-yl)-1H-1,2,4-triazole-5-carboxamide], > 1000 nM.
